Test results from patent US7118895B2, “Process for producing aglycon by using diglycosidase and flavor-improved food containing the aglycon and converting agent to be used in the process” (Amano Enzyme Inc., priority 2000, dated 2006).

Tested on: Crude diglycosidase
Assay: Examination of pH in the conversion into isoflavone aglycons by diglycosidase using soybean materials
Format: biochemical, Penicillium multicolor IAM7153
Design: Decomposition efficiency of genistin family in soymilk / Decomposition efficiency of genistin family in defatted soybean / Decomposition efficiency of daidzin family in defatted soybean: concentration or dose not given beside the values
Conditions: for Decomposition efficiency of genistin family in roasted soy flour: 55° C.
Outline: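 Each soybean material (50 mg) is suspended and set to a pH between 2 and 11. Crude diglycosidase, adjusted to 1.88 AU/mL in enzyme solution of the same pH, is added, and the mixture is incubated at 55° C. Ethanol is added at 0, 1, 3 and 6 h, then supernatants go to HPLC.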

[1] = pH4.8, heat treatment of enzyme: no, reaction time 0 h
[2] = pH4.8, heat treatment of enzyme: no, reaction time 1 h
[3] = pH4.8, heat treatment of enzyme: no, reaction time 3 h
[4] = pH4.8, heat treatment of enzyme: no, reaction time 6 h
[5] = pH4.8, heat treatment of enzyme: yes, reaction time 6 h
[6] = pH6.6, heat treatment of enzyme: no, reaction time 0 h
[7] = pH6.6, heat treatment of enzyme: no, reaction time 1 h
[8] = pH6.6, heat treatment of enzyme: no, reaction time 3 h
[9] = pH6.6, heat treatment of enzyme: no, reaction time 6 h
[10] = pH6.6, heat treatment of enzyme: yes, reaction time 6 h

Decomposition efficiency of genistin family in concentrated soybean protein (pH1.6, heat treatment of enzyme: no, reaction time 0 h): 49.7% | Decomposition efficiency of genistin family in concentrated soybean protein (pH1.6, heat treatment of enzyme: no, reaction time 1 h): 50.2% | Decomposition efficiency of genistin family in concentrated soybean protein (pH1.6, heat treatment of enzyme: no, reaction time 3 h): 51.6% | Decomposition efficiency of genistin family in concentrated soybean protein (pH1.6, heat treatment of enzyme: no, reaction time 6 h): 53.3% | Decomposition efficiency of genistin family in concentrated soybean protein (pH1.6, heat treatment of enzyme: yes, reaction time 6 h): 54.4% | Decomposition efficiency of genistin family in roasted soy flour (pH2, heat treatment of enzyme no, reaction time 0 h): 50.0 | Decomposition efficiency of genistin family in roasted soy flour (pH2, heat treatment of enzyme no, reaction time 1 h): 49.7 | Decomposition efficiency of genistin family in roasted soy flour (pH2, heat treatment of enzyme no, reaction time 3 h): 50.7 | Decomposition efficiency of genistin family in roasted soy flour (pH2, heat treatment of enzyme no, reaction time 6 h): 52.7 | Decomposition efficiency of genistin family in roasted soy flour (pH2, heat treatment of enzyme yes, reaction time 6 h): 52.8 | Decomposition efficiency of genistin family in soymilk (pH2.3, heat treatment of enzyme: no, reaction time 0 h): 31.5% | Decomposition efficiency of genistin family in soymilk (pH2.3, heat treatment of enzyme: no, reaction time 1 h): not detected | Decomposition efficiency of genistin family in soymilk (pH2.3, heat treatment of enzyme: no, reaction time 3 h): not detected | Decomposition efficiency of genistin family in soymilk (pH2.3, heat treatment of enzyme: no, reaction time 6 h): not detected | Decomposition efficiency of genistin family in soymilk (pH2.3, heat treatment of enzyme: yes, reaction time 6 h): 35.5% | Decomposition efficiency of genistin family in defatted soybean (pH2.6, heat treatment of enzyme: no, reaction time 0 h): 42.0% | Decomposition efficiency of genistin family in defatted soybean (pH2.6, heat treatment of enzyme: no, reaction time 1 h): 36.3% | Decomposition efficiency of genistin family in defatted soybean (pH2.6, heat treatment of enzyme: no, reaction time 3 h): 20.3% | Decomposition efficiency of genistin family in defatted soybean (pH2.6, heat treatment of enzyme: no, reaction time 6 h): 20.1% | Decomposition efficiency of genistin family in defatted soybean (pH2.6, heat treatment of enzyme: yes, reaction time 6 h): 44.3% | Decomposition efficiency of genistin family in concentrated soybean protein (pH2.7, heat treatment of enzyme: no, reaction time 0 h): 49.7% | Decomposition efficiency of genistin family in concentrated soybean protein (pH2.7, heat treatment of enzyme: no, reaction time 1 h): 23.1% | Decomposition efficiency of genistin family in concentrated soybean protein (pH2.7, heat treatment of enzyme: no, reaction time 3 h): 22.1% | Decomposition efficiency of genistin family in concentrated soybean protein (pH2.7, heat treatment of enzyme: no, reaction time 6 h): 17.5% | Decomposition efficiency of genistin family in concentrated soybean protein (pH2.7, heat treatment of enzyme: yes, reaction time 6 h): 50.5% | Decomposition efficiency of genistin family in roasted soy flour (pH3, heat treatment of enzyme no, reaction time 0 h): 50.0 | Decomposition efficiency of genistin family in roasted soy flour (pH3, heat treatment of enzyme no, reaction time 1 h): 3.4 | Decomposition efficiency of genistin family in roasted soy flour (pH3, heat treatment of enzyme no, reaction time 3 h): not detected | Decomposition efficiency of genistin family in roasted soy flour (pH3, heat treatment of enzyme no, reaction time 6 h): not detected | Decomposition efficiency of genistin family in roasted soy flour (pH3, heat treatment of enzyme yes, reaction time 6 h): 49.9 | Decomposition efficiency of genistin family in defatted soybean (pH3.4, heat treatment of enzyme: no, reaction time 0 h): 42.0% | Decomposition efficiency of genistin family in defatted soybean (pH3.4, heat treatment of enzyme: no, reaction time 1 h): not detected | Decomposition efficiency of genistin family in defatted soybean (pH3.4, heat treatment of enzyme: no, reaction time 3 h): not detected | Decomposition efficiency of genistin family in defatted soybean (pH3.4, heat treatment of enzyme: no, reaction time 6 h): not detected | Decomposition efficiency of genistin family in defatted soybean (pH3.4, heat treatment of enzyme: yes, reaction time 6 h): 44.3% | Decomposition efficiency of genistin family in soymilk (pH3.5, heat treatment of enzyme: no, reaction time 0 h): 31.5% | Decomposition efficiency of genistin family in soymilk (pH3.5, heat treatment of enzyme: no, reaction time 1 h): not detected | Decomposition efficiency of genistin family in soymilk (pH3.5, heat treatment of enzyme: no, reaction time 3 h): not detected | Decomposition efficiency of genistin family in soymilk (pH3.5, heat treatment of enzyme: no, reaction time 6 h): not detected | Decomposition efficiency of genistin family in soymilk (pH3.5, heat treatment of enzyme: yes, reaction time 6 h): 37.0% | Decomposition efficiency of genistin family in concentrated soybean protein (pH3.7, heat treatment of enzyme: no, reaction time 0 h): 50.7% | Decomposition efficiency of genistin family in concentrated soybean protein (pH3.7, heat treatment of enzyme: no, reaction time 1 h): not detected | Decomposition efficiency of genistin family in concentrated soybean protein (pH3.7, heat treatment of enzyme: no, reaction time 3 h): not detected | Decomposition efficiency of genistin family in concentrated soybean protein (pH3.7, heat treatment of enzyme: no, reaction time 6 h): not detected | Decomposition efficiency of genistin family in concentrated soybean protein (pH3.7, heat treatment of enzyme: yes, reaction time 6 h): 50.6% | Decomposition efficiency of genistin family in roasted soy flour (pH4, heat treatment of enzyme no, reaction time 0 h): 49.9 | Decomposition efficiency of genistin family in roasted soy flour (pH4, heat treatment of enzyme no, reaction time 1 h): not detected | Decomposition efficiency of genistin family in roasted soy flour (pH4, heat treatment of enzyme no, reaction time 3 h): not detected | Decomposition efficiency of genistin family in roasted soy flour (pH4, heat treatment of enzyme no, reaction time 6 h): not detected | Decomposition efficiency of genistin family in roasted soy flour (pH4, heat treatment of enzyme yes, reaction time 6 h): 50.2 | Decomposition efficiency of genistin family in defatted soybean [1]: 40.5% | Decomposition efficiency of genistin family in soymilk [1]: 31.7% | Decomposition efficiency of genistin family in defatted soybean [2]: not detected | Decomposition efficiency of genistin family in soymilk [2]: not detected | Decomposition efficiency of genistin family in defatted soybean [3]: not detected | Decomposition efficiency of genistin family in soymilk [3]: not detected | Decomposition efficiency of genistin family in defatted soybean [4]: not detected | Decomposition efficiency of genistin family in soymilk [4]: not detected | Decomposition efficiency of genistin family in defatted soybean [5]: 31.8% | Decomposition efficiency of genistin family in soymilk [5]: 37.8% | Decomposition efficiency of genistin family in roasted soy flour (pH5, heat treatment of enzyme no, reaction time 0 h): 49.9 | Decomposition efficiency of genistin family in roasted soy flour (pH5, heat treatment of enzyme no, reaction time 1 h): not detected | Decomposition efficiency of genistin family in roasted soy flour (pH5, heat treatment of enzyme no, reaction time 3 h): not detected | Decomposition efficiency of genistin family in roasted soy flour (pH5, heat treatment of enzyme no, reaction time 6 h): not detected | Decomposition efficiency of genistin family in roasted soy flour (pH5, heat treatment of enzyme yes, reaction time 6 h): 52.6 | Decomposition efficiency of genistin family in concentrated soybean protein (pH5.1, heat treatment of enzyme: no, reaction time 0 h): 50.7% | Decomposition efficiency of genistin family in concentrated soybean protein (pH5.1, heat treatment of enzyme: no, reaction time 1 h): not detected | Decomposition efficiency of genistin family in concentrated soybean protein (pH5.1, heat treatment of enzyme: no, reaction time 3 h): not detected | Decomposition efficiency of genistin family in concentrated soybean protein (pH5.1, heat treatment of enzyme: no, reaction time 6 h): not detected | Decomposition efficiency of genistin family in concentrated soybean protein (pH5.1, heat treatment of enzyme: yes, reaction time 6 h): 51.4% | Decomposition efficiency of genistin family in defatted soybean (pH5.4, heat treatment of enzyme: no, reaction time 0 h): 40.5% | Decomposition efficiency of genistin family in defatted soybean (pH5.4, heat treatment of enzyme: no, reaction time 1 h): not detected | Decomposition efficiency of genistin family in defatted soybean (pH5.4, heat treatment of enzyme: no, reaction time 3 h): not detected | Decomposition efficiency of genistin family in defatted soybean (pH5.4, heat treatment of enzyme: no, reaction time 6 h): not detected | Decomposition efficiency of genistin family in defatted soybean (pH5.4, heat treatment of enzyme: yes, reaction time 6 h): 6.2% | Decomposition efficiency of genistin family in soymilk (pH6.2, heat treatment of enzyme: no, reaction time 0 h): 31.7% | Decomposition efficiency of genistin family in soymilk (pH6.2, heat treatment of enzyme: no, reaction time 1 h): not detected | Decomposition efficiency of genistin family in soymilk (pH6.2, heat treatment of enzyme: no, reaction time 3 h): not detected | Decomposition efficiency of genistin family in soymilk (pH6.2, heat treatment of enzyme: no, reaction time 6 h): not detected | Decomposition efficiency of genistin family in soymilk (pH6.2, heat treatment of enzyme: yes, reaction time 6 h): 38.3% | Decomposition efficiency of genistin family in roasted soy flour (pH6.5, heat treatment of enzyme no, reaction time 0 h): 49.4 | Decomposition efficiency of genistin family in roasted soy flour (pH6.5, heat treatment of enzyme no, reaction time 1 h): not detected | Decomposition efficiency of genistin family in roasted soy flour (pH6.5, heat treatment of enzyme no, reaction time 3 h): not detected | Decomposition efficiency of genistin family in roasted soy flour (pH6.5, heat treatment of enzyme no, reaction time 6 h): not detected | Decomposition efficiency of genistin family in roasted soy flour (pH6.5, heat treatment of enzyme yes, reaction time 6 h): 54.8 | Decomposition efficiency of genistin family in concentrated soybean protein [6]: 50.4% | Decomposition efficiency of genistin family in defatted soybean [6]: 39.2% | Decomposition efficiency of genistin family in concentrated soybean protein [7]: 13.9% | Decomposition efficiency of genistin family in defatted soybean [7]: not detected | Decomposition efficiency of genistin family in concentrated soybean protein [8]: 3.8% | Decomposition efficiency of genistin family in defatted soybean [8]: not detected | Decomposition efficiency of genistin family in concentrated soybean protein [9]: 1.7% | Decomposition efficiency of genistin family in defatted soybean [9]: not detected | Decomposition efficiency of genistin family in concentrated soybean protein [10]: 53.2% | Decomposition efficiency of genistin family in defatted soybean [10]: 7.7% | Decomposition efficiency of genistin family in soymilk (pH7.2, heat treatment of enzyme: no, reaction time 0 h): 31.2% | Decomposition efficiency of genistin family in soymilk (pH7.2, heat treatment of enzyme: no, reaction time 1 h): not detected | Decomposition efficiency of genistin family in soymilk (pH7.2, heat treatment of enzyme: no, reaction time 3 h): not detected | Decomposition efficiency of genistin family in soymilk (pH7.2, heat treatment of enzyme: no, reaction time 6 h): not detected | Decomposition efficiency of genistin family in soymilk (pH7.2, heat treatment of enzyme: yes, reaction time 6 h): 38.9% | Decomposition efficiency of genistin family in defatted soybean (pH7.8, heat treatment of enzyme: no, reaction time 0 h): 40.4% | Decomposition efficiency of genistin family in defatted soybean (pH7.8, heat treatment of enzyme: no, reaction time 1 h): 15.7% | Decomposition efficiency of genistin family in defatted soybean (pH7.8, heat treatment of enzyme: no, reaction time 3 h): 12.3% | Decomposition efficiency of genistin family in defatted soybean (pH7.8, heat treatment of enzyme: no, reaction time 6 h): 11.4% | Decomposition efficiency of genistin family in defatted soybean (pH7.8, heat treatment of enzyme: yes, reaction time 6 h): 37.5% | Decomposition efficiency of genistin family in roasted soy flour (pH8.5, heat treatment of enzyme no, reaction time 0 h): 55.8 | Decomposition efficiency of genistin family in roasted soy flour (pH8.5, heat treatment of enzyme no, reaction time 1 h): 28.7 | Decomposition efficiency of genistin family in roasted soy flour (pH8.5, heat treatment of enzyme no, reaction time 3 h): 19.2 | Decomposition efficiency of genistin family in roasted soy flour (pH8.5, heat treatment of enzyme no, reaction time 6 h): 14.5 | Decomposition efficiency of genistin family in roasted soy flour (pH8.5, heat treatment of enzyme yes, reaction time 6 h): 59.5 | Decomposition efficiency of genistin family in concentrated soybean protein (pH8.6, heat treatment of enzyme: no, reaction time 0 h): 53.8% | Decomposition efficiency of genistin family in concentrated soybean protein (pH8.6, heat treatment of enzyme: no, reaction time 1 h): 50.4% | Decomposition efficiency of genistin family in concentrated soybean protein (pH8.6, heat treatment of enzyme: no, reaction time 3 h): 45.1% | Decomposition efficiency of genistin family in concentrated soybean protein (pH8.6, heat treatment of enzyme: no, reaction time 6 h): 36.3% | Decomposition efficiency of genistin family in concentrated soybean protein (pH8.6, heat treatment of enzyme: yes, reaction time 6 h): 56.2% | Decomposition efficiency of genistin family in soymilk (pH11.6, heat treatment of enzyme: no, reaction time 0 h): 34.8% | Decomposition efficiency of genistin family in soymilk (pH11.6, heat treatment of enzyme: no, reaction time 1 h): not detected | Decomposition efficiency of genistin family in soymilk (pH11.6, heat treatment of enzyme: no, reaction time 3 h): not detected | Decomposition efficiency of genistin family in soymilk (pH11.6, heat treatment of enzyme: no, reaction time 6 h): not detected | Decomposition efficiency of genistin family in soymilk (pH11.6, heat treatment of enzyme: yes, reaction time 6 h): 41.3%
SMILES: O=c1c(-c2ccc(O)cc2)coc2cc(O[C@@H]3O[C@H](CO)[C@@H](O)[C@H](O)[C@H]3O)cc(O)c12 [genistin]
